This note sets out measurements from PubChem BioAssay AID1845216 (Molecular Pharmacology Branch, DTP, NCI, 2023).

In the assay the test system is SW 982 tumor spheroid viability. The assay is described as follows: Anticancer human tumor SW 982 cell line growth inhibition.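 On all read-outs here: spheroids exposed to compound for 7 days before readout.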 The conditions noted are these: spheroids with HUVEC and MSC; for viability, T/C: stronger effect = lower value. A digest of the protocol:
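Single agents and combinations were tested on spheroids built from tumor cells plus HUVEC and hMSC, at half-log dilutions starting at or near clinical Cmax, else 10 microM; final DMSO 0.25% (v/v).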

[1] abbreviates: curve of first compound, second compound 0.003 µM.
Where [2] appears, read: second compound 0.003 µM, first compound 0.0316 µM.
[3] abbreviates: second compound 0.003 µM, first compound 0.1 µM.
Where [4] appears, read: second compound 0.003 µM, first compound 0.316 µM.
[5] abbreviates: second compound 0.003 µM, first compound 1 µM.
Where [6] appears, read: second compound 0.003 µM, first compound 3.16 µM.
Setting [7] is: second compound 0.003 µM, first compound 10 µM.

Where “and” joins values, the source holds several entries; their conditions need not be identical. Identical values can stand only once.

Broadly, the IC50 is the midpoint of a concentration-inhibition curve. The term viability, T/C denotes the result in the treated group divided by that in the control group, in per cent. In the case of `CC(C)n1c(=O)n(C)c2cnc3cc(F)c(-c4ccc(OCCCN5CCCCC5)nc4)cc3c21` + COc1cc2c(cc1O)CCNC21CSC2c3c(OC(C)=O)c(C)c4c(c3C(COC1=O)N1C(O)C3Cc5cc(C)c(OC)c(O)c5C(C21)N3C)OCO4, the IC50 by setting is: (curve of first compound, second compound 30 pM) 2850 nM; (curve of first compound, second compound 94.9 pM) 5660 nM; (curve of first compound, second compound 0.0003 µM) 2450 nM; (curve of first compound, second compound 0.000949 µM) under 31.6 nM; under setting [1], under 31.6 nM. Further, the viability, T/C (second compound 30 pM, first compound 0.0316 µM) was 83.8%; the viability, T/C (second compound 30 pM, first compound 0.1 µM) was 87.3%; the viability, T/C (second compound 30 pM, first compound 0.316 µM) was 83.9%; the viability, T/C (second compound 30 pM, first compound 1 µM) is 76.5%; the viability, T/C (second compound 30 pM, first compound 3.16 µM) was 47.3%; the viability, T/C (second compound 30 pM, first compound 10 µM) is 42.7%. For the same compound, the viability, T/C (second compound 94.9 pM, first compound 0.0316 µM) is 80.6%; the viability, T/C (second compound 94.9 pM, first compound 0.1 µM) is 80.5%; the viability, T/C (second compound 94.9 pM, first compound 0.316 µM) was 79.1%; the viability, T/C (second compound 94.9 pM, first compound 1 µM) is 75.1%; the viability, T/C (second compound 94.9 pM, first compound 3.16 µM) is 59.8%; the viability, T/C (second compound 94.9 pM, first compound 10 µM) was 40.4%. Besides, the viability, T/C is, setting by setting: (second compound 0.0003 µM, first compound 0.0316 µM) 69.2%; (second compound 0.0003 µM, first compound 0.1 µM) 65.5%; (second compound 0.0003 µM, first compound 0.316 µM) 72.4%; (second compound 0.0003 µM, first compound 1 µM) 64.5%; (second compound 0.0003 µM, first compound 3.16 µM) 45.9%; (second compound 0.0003 µM, first compound 10 µM) 37%. In addition, the viability, T/C is, setting by setting: (second compound 0.000949 µM, first compound 0.0316 µM) 32.3%; (second compound 0.000949 µM, first compound 0.1 µM) 30.3%; (second compound 0.000949 µM, first compound 0.316 µM) 30.6%; (second compound 0.000949 µM, first compound 1 µM) 43.6%; (second compound 0.000949 µM, first compound 3.16 µM) 33.8%; (second compound 0.000949 µM, first compound 10 µM) 21.6%. The viability, T/C is, setting by setting: under setting [2], 0.57%; under setting [3], 0.53%; under setting [4], 0.47%; under setting [5], 0.5%; under setting [6], 0.57%; under setting [7], 0.64%.

For the compound `CC[C@@]1(O)C(=O)OCc2c1cc1n(c2=O)Cc2cc3c(CN(C)C)c(O)ccc3nc2-1`, the viability, T/C runs as follows: (compound 0.003 µM) 93.7% [middle of 10 runs]; (compound 0.00949 µM) 87.9% [middle of 10 runs]; (compound 0.03 µM) 81.2% [middle of 10 runs]; (compound 0.0949 µM) 70.1% [middle of 10 runs]; (compound 0.3 µM) 51.5% [middle of 10 runs]. For the same compound, the IC50 is, setting by setting: (compound alone, run of 12/02/2019) > 300 nM and 283 nM; (compound alone, run of 12/12/2019) > 300 nM and 252 nM and 286 nM.

`Cc1cc(C)c(CNC(=O)c2cc(-c3ccc(CN4CCOCC4)cc3)cc3c2cnn3C2CCCC2)c(=O)[nH]1`: the viability, T/C is, setting by setting: (compound 0.0316 µM) 111% and 101% and 106%; (compound 0.1 µM) 99.1% and 105% and 100%; (compound 0.316 µM) 97.4% and 99.9% and 105%; (compound 1 µM) 102% and 99.6% and 105%; (compound 3.16 µM) 95.3% and 98.8% and 82%; (compound 10 µM) 60.5% and 58.6% and 69%. Moreover, the IC50 (curve of compound) is over 10000 nM.

On to `CC(C)n1c(=O)n(C)c2cnc3cc(F)c(-c4ccc(OCCCN5CCCCC5)nc4)cc3c21` + CC[C@@]1(O)C(=O)OCc2c1cc1n(c2=O)Cc2cc3c(CN(C)C)c(O)ccc3nc2-1, for which the IC50 came out at 1570 nM under setting [1]; 1530 nM (curve of first compound, second compound 0.00949 µM); 952 nM (curve of first compound, second compound 0.03 µM); 513 nM (curve of first compound, second compound 0.0949 µM); 76.8 nM (curve of first compound, second compound 0.3 µM). Moreover, the viability, T/C by setting is: under setting [2], 80.2%; under setting [3], 77%; under setting [4], 78.9%; under setting [5], 62.5%; under setting [6], 30.2%; under setting [7], 20.3%. Besides, the viability, T/C (second compound 0.00949 µM, first compound 0.0316 µM) was 71.6%; the viability, T/C (second compound 0.00949 µM, first compound 0.1 µM) is 79.7%; the viability, T/C (second compound 0.00949 µM, first compound 0.316 µM) was 64%; the viability, T/C (second compound 0.00949 µM, first compound 1 µM) was 61.4%; the viability, T/C (second compound 0.00949 µM, first compound 3.16 µM) was 34.4%; the viability, T/C (second compound 0.00949 µM, first compound 10 µM) was 18.4%. The viability, T/C (second compound 0.03 µM, first compound 0.0316 µM) was 71.6%; the viability, T/C (second compound 0.03 µM, first compound 0.1 µM) was 81%; the viability, T/C (second compound 0.03 µM, first compound 0.316 µM) was 59.4%; the viability, T/C (second compound 0.03 µM, first compound 1 µM) was 53.6%; the viability, T/C (second compound 0.03 µM, first compound 3.16 µM) is 25.1%; the viability, T/C (second compound 0.03 µM, first compound 10 µM) is 17.1%. Besides, the viability, T/C is 72.6% (second compound 0.0949 µM, first compound 0.0316 µM); 65.5% (second compound 0.0949 µM, first compound 0.1 µM); 58.6% (second compound 0.0949 µM, first compound 0.316 µM); 39.3% (second compound 0.0949 µM, first compound 1 µM); 24.9% (second compound 0.0949 µM, first compound 3.16 µM); 15.9% (second compound 0.0949 µM, first compound 10 µM). Besides, the viability, T/C (second compound 0.3 µM, first compound 0.0316 µM) is 56.4%; the viability, T/C (second compound 0.3 µM, first compound 0.1 µM) was 46.2%; the viability, T/C (second compound 0.3 µM, first compound 0.316 µM) is 40.8%; the viability, T/C (second compound 0.3 µM, first compound 1 µM) is 30%; the viability, T/C (second compound 0.3 µM, first compound 3.16 µM) is 18.6%; the viability, T/C (second compound 0.3 µM, first compound 10 µM) was 14.5%.

Consider `COc1cc(C)[nH]c(=O)c1CN1CCc2c(Cl)cc(C(OC)C3COC3)c(Cl)c2C1=O` (stereo not drawn), for which the viability, T/C is, setting by setting: (compound 0.0316 µM) 72.5% and 105% and 108%; (compound 0.1 µM) 94.6% and 111% and 95.2%; (compound 0.316 µM) 100% and 109% and 89.6%; (compound 1 µM) 108% and 107% and 93.8%; (compound 3.16 µM) 113% and 110% and 96.4%; (compound 10 µM) 94.8% and 100% and 98.8%. Also, the IC50 (curve of compound) was over 10000 nM.

Consider `[2H]c1nc(C)nc([2H])c1-c1cc(NC[C@@H](C)c2cccc3c(C(=O)NC)ccnc23)ncn1`, for which the viability, T/C by setting is: (compound 0.0316 µM) 80.2% and 102% and 103%; (compound 0.1 µM) 91.6% and 101% and 97.5%; (compound 0.316 µM) 94% and 103% and 107%; (compound 1 µM) 96.9% and 96.7% and 114%; (compound 3.16 µM) 103% and 101% and 111%; (compound 10 µM) 103% and 94.8% and 108%. In addition, for the setting “curve of compound”, the IC50 is over 10000 nM.
